Measurements as given in PMC2248166, “Quantitative peptide binding motifs for 19 human and mouse MHC class I molecules derived using positional scanning combinatorial peptide libraries” (Immunome Research, 2008).

What was measured:
HLA B*5101 = HLA B*5101 (Homo sapiens, UniProt P01889, A329T/A93T/A95T/C349S/D138N/D201E/D98Y/E187L/E204Q/E69T/G107R/I218V/K202T/L105A/L119W/N104I/Q94N/R106L/R155S/R180L/S101N/S121T/S35A/S48A/V306I/V36M/Y195H/Y91F); assay type: binding
HLA A*3001 = HLA A*3001 (Homo sapiens, UniProt P04439, D140H/D185E/E176W/F33S/G80R/H175R/K168Q/R138E/R41S); assay: biochemical; assay type: binding
HLA B*5802 = HLA B*5802 (Homo sapiens, UniProt P01889, A329T/C349S/D201E/D98Y/E176V/E187L/E204Q/E69T/G107R/I218V/I90N/K202T/L105A/N104I/N87E/Q89R/Q94S/R106L/R155S/R180L/R86G/S101N/S121W/S35A/S48A/V127L/V306I/V36M/Y140S/Y91M); assay type: binding
H-2 K^k = H-2 K^k (Mus musculus, UniProt P04223); assay type: binding
HLA B*1503 = HLA B*1503 (Homo sapiens, UniProt P01889, A329T/A93T/A95T/C349S/D201E/D98Y/E187L/E204Q/K202T/N87E/Q94N/R155S/R180L/S121R/S35A/V306I/V36M/Y140S/Y91S); assay: biochemical; assay type: binding
HLA B*0702 = HLA B*0702 (Homo sapiens, UniProt P01889); assay type: binding; details: positional scanning combinatorial 9-mer library; normalized to 1.0 for the best residue at each position
H-2 D^d = H-2 D^d (Mus musculus, UniProt P01900); assay type: binding
HLA A*0201 = HLA A*0201 (Homo sapiens, UniProt P04439, D140Y/D185E/D98H/E176V/E277Q/G131W/G231S/I119V/I121R/I166T/I218V/L300P/L318F/N151K/N90K/P208A/P217A/Q86G/Q94H/R138H/R169H/T345S); details: positional scanning combinatorial 9-mer library; normalized to 1.0 for the best residue at each position
HLA B*5401 = HLA B*5401 (Homo sapiens, UniProt P01889, A329T/C349S/D138N/D201E/E176V/E187T/E204Q/E69G/I76V/K202T/L119W/R155S/R180L/S121T/S35A/S48A/V127L/V306I/V36M/Y140L); assay type: binding
HLA B*1501 = HLA B*1501 (Homo sapiens, UniProt P01889, A329T/A93T/A95T/C349S/D201E/D98Y/E187L/E204Q/E69M/E70A/K202T/N87E/Q94N/R155S/R180W/S121R/S35A/S48A/V306I/V36M/Y140S/Y91S); assay: biochemical; assay type: binding
H-2 D^b = H-2 D^b (Mus musculus, UniProt P01899); assay type: binding
HLA B*5301 = HLA B*5301 (Homo sapiens, UniProt P01889, A329T/A93T/A95T/C349S/D201E/D98Y/E176V/E187L/E204Q/E69T/G107R/I218V/K202T/L105A/L119I/N104I/Q94N/R106L/R155S/R180L/S101N/S121R/S35A/S48A/T118I/V127L/V306I/V36M/Y140S/Y91F); assay type: binding
HLA A*6802 = HLA A*6802 (Homo sapiens, UniProt P04439, A269V/D140Y/D185E/E176V/E277Q/E87N/F33Y/G231S/I121R/I166T/I218V/L180W/L300P/L318F/N151K/P208A/P217A/Q86R/R138H/R169H/S129P/T345S/V36M); assay type: binding
HLA B*3501 = HLA B*3501 (Homo sapiens, UniProt P01889, A329T/A93T/A95T/C349S/D201E/D98Y/E176V/E187L/E204Q/E69T/I218V/K202T/L119I/Q94N/R155S/R180L/S121R/S35A/S48A/T118I/V127L/V306I/V36M/Y140S/Y91F); assay type: binding
HLA B*2705 = HLA B*2705 (Homo sapiens, UniProt P01889, D138H/D201E/E176V/E204Q/G107R/H137Y/K202T/N104T/N87E/Q56L/Q94K/R106L/R155S/R180L/S101D/S121N/S48T/Y140D/Y33H/Y91C); assay type: binding; details: positional scanning combinatorial 9-mer library; normalized to 1.0 for the best residue at each position
HLA B*5801 = HLA B*5801 (Homo sapiens, UniProt P01889, A329T/C349S/D201E/D98Y/E176V/E187L/E204Q/E69T/G107R/I218V/I90N/K202T/L105A/L119I/N104I/N87E/Q89R/Q94S/R106L/R155S/R180L/R86G/S101N/S121R/S35A/S48A/T118I/V127L/V306I/V36M/Y140S/Y91M); assay type: binding
HLA A*3201 = HLA A*3201 (Homo sapiens, UniProt P04439, A270S/D101S/D185E/E176V/E277Q/F133L/G103R/G107R/G231S/H175R/I121M/I218V/I322F/K168Q/L105A/L300P/L318F/M331R/P208A/P217A/Q94H/R106L/R138Q/S129P/T104I/T323A/T345S/V100E/V321M/V358M); assay: biochemical; assay type: binding
HLA B*0801 = HLA B*0801 (Homo sapiens, UniProt P01889, A93T/A95T/D138N/E176V/E187T/K202T/Q94N/R180D/S35A/V36M/Y33D/Y91F); assay: biochemical; assay type: binding

H-2 D^b, sequence (P01887 21-119): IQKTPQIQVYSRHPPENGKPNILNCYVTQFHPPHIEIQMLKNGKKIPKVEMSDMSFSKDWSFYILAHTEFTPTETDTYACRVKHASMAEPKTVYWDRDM
H-2 D^b, sequence (P01899 25-362): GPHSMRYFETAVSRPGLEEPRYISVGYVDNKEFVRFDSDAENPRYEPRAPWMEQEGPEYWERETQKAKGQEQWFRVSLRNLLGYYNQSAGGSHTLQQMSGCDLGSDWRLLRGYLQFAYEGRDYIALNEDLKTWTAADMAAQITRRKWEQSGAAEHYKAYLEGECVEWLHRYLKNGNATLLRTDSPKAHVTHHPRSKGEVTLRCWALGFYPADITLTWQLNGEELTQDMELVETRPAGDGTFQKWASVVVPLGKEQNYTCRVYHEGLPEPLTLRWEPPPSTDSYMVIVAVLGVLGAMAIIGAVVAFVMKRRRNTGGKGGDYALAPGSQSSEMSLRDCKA
H-2 K^k, sequence (P01887 21-119): as the sequence (P01887 21-119) above
H-2 K^k, sequence (P04223 22-369): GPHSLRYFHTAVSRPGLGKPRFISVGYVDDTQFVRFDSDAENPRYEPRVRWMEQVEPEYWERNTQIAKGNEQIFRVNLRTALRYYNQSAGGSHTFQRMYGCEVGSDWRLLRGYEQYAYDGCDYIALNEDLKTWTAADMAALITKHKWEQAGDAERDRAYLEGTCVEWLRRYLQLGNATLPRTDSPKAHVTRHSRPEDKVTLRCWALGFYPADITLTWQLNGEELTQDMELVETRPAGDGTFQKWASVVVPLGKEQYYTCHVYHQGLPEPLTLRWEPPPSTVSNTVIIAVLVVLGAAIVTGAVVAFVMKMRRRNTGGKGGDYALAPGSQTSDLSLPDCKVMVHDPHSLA
H-2 D^d, sequence (P01900 whole entry, looked up): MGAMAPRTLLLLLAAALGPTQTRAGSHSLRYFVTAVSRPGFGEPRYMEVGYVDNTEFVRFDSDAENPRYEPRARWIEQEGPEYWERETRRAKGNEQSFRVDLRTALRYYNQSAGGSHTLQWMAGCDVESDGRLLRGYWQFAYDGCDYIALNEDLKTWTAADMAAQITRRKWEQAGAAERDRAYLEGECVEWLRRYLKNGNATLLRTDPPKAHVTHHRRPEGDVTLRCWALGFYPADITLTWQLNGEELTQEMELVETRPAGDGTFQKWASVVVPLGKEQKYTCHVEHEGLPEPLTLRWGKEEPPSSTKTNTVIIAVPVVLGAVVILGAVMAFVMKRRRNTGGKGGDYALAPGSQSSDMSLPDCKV

Sequence	Normalized average relative binding affinity (ARB), HLA B*5101 (HLA B*5101)	Normalized average relative binding affinity (ARB), HLA A*3001 (HLA A*3001)	Normalized average relative binding affinity (ARB), HLA B*5802 (HLA B*5802)	Normalized average relative binding affinity (ARB), H-2 Kk (H-2 K^k)	Normalized average relative binding affinity (ARB), HLA B*1503 (HLA B*1503)	Normalized average relative binding affinity (ARB), HLA B*0702 (HLA B*0702)	Normalized average relative binding affinity (ARB), H-2 Dd (H-2 D^d)	Normalized average relative binding affinity (ARB), HLA A*0201 (HLA A*0201)	Normalized average relative binding affinity (ARB), HLA B*5401 (HLA B*5401)	Normalized average relative binding affinity (ARB), HLA B*1501 (HLA B*1501)	Normalized average relative binding affinity (ARB), H-2 Db (H-2 D^b)	Normalized average relative binding affinity (ARB), HLA B*5301 (HLA B*5301)	Normalized average relative binding affinity (ARB), HLA A*6802 (HLA A*6802)	Normalized average relative binding affinity (ARB), HLA B*3501 (HLA B*3501)	Normalized average relative binding affinity (ARB), HLA B*2705 (HLA B*2705)	Normalized average relative binding affinity (ARB), HLA B*5801 (HLA B*5801)	Normalized average relative binding affinity (ARB), HLA A*3201 (HLA A*3201)	Normalized average relative binding affinity (ARB), HLA B*0801 (HLA B*0801)
DXXXXXXXX [3064.0003]	0.27	0.0069	0.068	0.43	0.016	0.021	0.059	0.0078	0.050	0.042	0.033	0.028	0.21	0.11	0.022	0.013	0.031	0.13
VXXXXXXXX [3064.0018]	0.17	0.074	0.21	0.13	0.22	0.14	0.80	0.062	0.032	0.14	0.094	0.018	0.038	0.11	0.16	0.74	0.28	0.047
XXPXXXXXX [3064.0053]	0.42	0.0036	0.047	0.035	0.058	0.014	1.0	0.056	0.013	0.32	0.38	0.010	0.043	0.089	0.027	0.042	0.13	0.072
XXDXXXXXX [3064.0043]	0.070	0.0018	0.047	0.059	0.032	0.031	0.012	0.46	0.0033	0.039	0.022	0.096	0.025	0.11	0.020	0.11	0.085	0.015
YXXXXXXXX [3064.0020]	1.0	0.064	0.46	0.63	0.34	0.25	0.41	0.11	0.12	0.33	0.57	0.36	0.24	0.19	0.85	0.20	0.12	0.24
XAXXXXXXX [3064.0021]	0.54	0.89	0.035	0.047	0.13	0.086	0.025	0.0018	1.0	0.57	0.64	0.44	0.12	0.88	0.0054	0.48	0.11	0.41
